19 compounds from patent US20120010206A1, “IMIDAZOLOPYRIDINE COMPOUNDS USEFUL FOR THE TREATMENT OF DEGENERATIVE AND INFLAMMATORY DISEASES” (priority 2006, published 2012) can be followed below.

For orientation: IC50 means the midpoint of a concentration-inhibition curve. High values mean lower potency, low ones higher potency. A word on the EC50: it is the concentration giving half of the maximal effect.

The target in assay [1] is T1, TAK1-TAB1 fusion protein (Homo sapiens, UniProt O43318).
T1 construct: purchased Upstate 14-600
T1 sequence (O43318 with tags, fused parts or gaps limits assumed): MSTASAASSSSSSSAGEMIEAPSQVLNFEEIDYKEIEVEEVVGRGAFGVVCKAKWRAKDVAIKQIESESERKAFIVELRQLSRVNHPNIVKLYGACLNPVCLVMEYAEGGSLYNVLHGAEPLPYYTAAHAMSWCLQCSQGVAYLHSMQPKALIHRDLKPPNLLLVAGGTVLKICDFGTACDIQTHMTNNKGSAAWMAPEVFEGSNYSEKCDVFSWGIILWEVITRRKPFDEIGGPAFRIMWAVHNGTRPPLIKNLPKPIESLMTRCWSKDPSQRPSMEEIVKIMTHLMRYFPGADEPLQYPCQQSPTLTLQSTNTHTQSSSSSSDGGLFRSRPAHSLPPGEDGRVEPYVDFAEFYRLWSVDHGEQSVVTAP
In words: In vitro TAK1 kinase assay (33P-ATP, casein substrate). To be noted: semi-quantitative score, at least two independent experiments. Format: biochemical. In outline: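 Radiometric assay with active TAK1-TAB1 fusion protein (0.5 mU), 0.1 mg/mL casein, ATP at 5 µM plus [33P]-γ-ATP, in 10 mM MOPS pH 7.0, 1 mM EDTA. Reactions ran 90 min at 30 °C, were stopped with phosphoric acid and filter-counted; percent inhibition from ≥2 experiments gave semi-quantitative potency scores.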

In assay [2] the test system is MMP1 expression from activated SFs (RASF). In words: MMP assay: MMP1 expression (ELISA) by TNF-α-triggered RASFs. In kind it is cell-based. Conditions: RASF triggered with TNFα, MMP1 ELISA after 48 hrs, semi-quantitative score. The procedure: A 384-well format ELISA for measurement of MMP1 is developed. Various primary antibodies are tested, as well as various ELISA protocols. The following protocol is developed and validated to measure MMP1 levels in SF supernatant in 384 well plates: white Lumitrac 600 384 well plates (Greiner) are coated with 2 μg/mL anti-MMP1 antibody MAB1346 (Chemicon). The antibody is diluted in buffer 40 (1.21 g Tris base (Sigma), 0.58 g NaCl (Calbiochem) and 5 mL 10% NaN3 (Sigma) in 1 L milliQ water and adjusted to pH 8.5). After overnight incubation at 4° C., plates are washed with PBS (80 g NaCl, 2 g KCl (Sigma), 11.5 g Na2HPO4.7H2O and 2 g KH2PO4 in 10 L milliQ; pH 7.4) and blocked with 100 μL/well Casein buffer (2% Casein (VWR International) in PBS). Next day, casein buffer is removed from ELISA plates and replaced by 50 μL/well EC buffer (4 g casein, 2.13 g Na2HPO4 (Sigma), 2 g bovine albumin (Sigma), 0.69 g NaH2PO4.H2O (Sigma), 0.5 g CHAPS (Roche), 23.3 g NaCl, 4 mL 0.5 M EDTA pH 8 (Invitrogen), 5 mL 10% NaN3 in 1 L milliQ and adjusted to pH 7.0). 0.25 mM DTT (Sigma) is added to the thawed sample plates. After removal of the EC buffer, 20 μL of sample is transferred to the ELISA plates. After overnight incubation at 4° C. plates are washed twice with PBS and once with PBST (PBS with 0.05% Tween-20 (Sigma)) and incubated with 35 μL/well biotinylated anti-MMP1 antibody solution (R&D). This secondary antibody is diluted in buffer C (0.82 g NaH2PO4.H2O, 4.82 g Na2HPO4, 46.6 g NaCl, 20 g bovine albumin and 4 ml, 0.5M EDTA pH 8 in 2 L milliQ and adjusted to pH 7.0) at a concentration of 5 μg/mL. After 2 h of incubation at RT, plates are washed as described above and incubated with 50 μL/well streptavidin-HRP conjugate (Biosource). Streptavidin-HRP conjugate is diluted in buffer C at a concentration of 0.25 μg/mL. After 45 min, plates are washed as described above and incubated for 5 min with 50 μL/well BM Chem ELISA Substrate (Roche). Readout is performed on the Luminoscan Ascent Luminometer (Labsystems) with an integration time of 200 msec or with an Envision reader (Perkin Elmer).
SFs were acquired at passage 1 from a commercial supplier (Cell applications, Inc.). SFs are cultured in DMEM supplemented with 10% heat-inactivated FBS, 1× penicillin/streptomycin (Invitrogen) at 37° C., 10% CO2 until passage 6. Aliquots of the cells are frozen and cryopreserved in liquid nitrogen. Starting from a cryopreserved aliquot, cells are further expanded by sub-culturing cells at 1/3 ratio every week. Cells between passage 10 and 12 are routinely used in compound testing according to the following protocol.
Starting from the compound master stocks (all at 10 mM concentration in 100% DMSO) a 3-fold serial dilution is made in 96-well plates in 100% DMSO. Then, plates are further diluted 45-fold in M199 medium supplemented with 1% heat-inactivated FBS to obtain a intermediate work stock.
At day 1, RASFs are seeded in 96 well plates (flat bottom, tissue culture treated, Greiner) at a density of 3000 cells/well in complete synovial growth medium (Cell Applications). Day 5, the medium is completely removed from the cells, and replaced by 81 μL of M199 medium supplemented with 1% heat-inactivated FBS followed by addition of 10 μL compound out of the intermediate work stock. After an incubation period of 90 minutes, which allows the compounds to equilibrate and enter the cells, cells are stimulated with either TNF-α or ‘complex trigger’. TNF-α trigger is added in a volume of […] to obtain final concentration of 10 ng/mL. For that, TNF-α stock (PeproTech) at 10 μg/mL was diluted to 100 ng/mL TNF-α in M199 medium supplemented with 1% FBS. ‘Complex trigger’ mix is added in a volume of 20 μL to obtain a final concentration of 12.5%. For that, ‘complex trigger’ mix, is diluted to 80% with M199 medium supplemented with 1% FBS. […]
In general terms: In an ELISA, binding on a coated surface is turned into a signal by an enzyme label.

Structures are written as SMILES. A value given as a limit tells only on which side of the number the result lay.

With `CN(C)c1ccc(CNC(=O)c2ccc(Nc3ccc(-c4ccc5c(c4)CNC5=O)n4ccnc34)cc2)cc1` [Compound 33], the IC50 in assay [1] lay in the range of 101 to 1000 nM. In assay [2], this compound showed an EC50 of 101 to 1000 nM.
With `O=C(NCCN1CCCC1)c1ccc(Nc2ccc(-c3ccc4c(c3)CNC4=O)n3ccnc23)cc1` [Compound 34, 4-(5-(1-oxoisoindolin-5-yl)imidazo[1,2-a]pyridin-8-ylamino)-N-(2-(pyrrolidin-1-yl)ethyl)benzamide], in assay [1], the IC50 was below 100 nM. In assay [2], this compound had an EC50 above 3000 nM.
In turn, `CN(C)CCNC(=O)c1ccc(Nc2ccc(-c3ccc4c(c3)CNC4=O)n3ccnc23)cc1` [Compound 36, N-(2-(dimethylamino)ethyl)-4-(5-(1-oxoisoindolin-5-yl)imidazo[1,2-a]pyridin-8-ylamino)benzamide] came in with an IC50 in assay [1] of 101 to 1000 nM. Moreover, the EC50 in assay [2] is above 3000 nM.
Turning to `Cc1cc(CNC(=O)c2ccc(Nc3ccc(-c4ccc5c(c4)CNC5=O)n4ccnc34)cc2)no1` [Compound 37, N-((5-methylisoxazol-3-yl)methyl)-4-(5-(1-oxoisoindolin-5-yl)imidazo[1,2-a]pyridin-8-ylamino)benzamide], the IC50 in assay [1] lay in the range of 1000 to 3000 nM. In assay [2], this compound returned an EC50 of 1000 to 3000 nM.
In the case of `COCCN(C)C(=O)c1ccc(Nc2ccc(-c3ccc4c(c3)CNC4=O)n3ccnc23)cc1` [Compound 38, N-(2-methoxyethyl)-N-methyl-4-(5-(1-oxoisoindolin-5-yl)imidazo[1,2-a]pyridin-8-ylamino)benzamide], in assay [1], the IC50 is 101 to 1000 nM. Also, in assay [2], the EC50 was above 3000 nM.
`CN(C)C1CCN(C(=O)c2ccc(Nc3ccc(-c4ccc5c(c4)CNC5=O)n4ccnc34)cc2)C1` (centres unmarked) [Compound 39, 5-(8-(4-(3-(dimethylamino)pyrrolidine-1-carbonyl)phenyl-amino)imidazo[1,2-a]pyridin-5-yl)isoindolin-1-one] showed an IC50 in assay [1] below 100 nM. The EC50 in assay [2] is above 3000 nM.
Taken in the same sequence, the figures for `CCOCCN1CCN(C(=O)c2ccc(Nc3ccc(-c4ccc5c(c4)CNC5=O)n4ccnc34)cc2)CC1` [Compound 40, 5-(8-(4-(4-(2-ethoxyethyl)piper-azine-1-carbonyl)phenyl-amino)imidazo[1,2-a]pyridin-5-yl)isoindolin-1-one] were 101 to 1000 nM and above 3000 nM.
The like results for `CNC(=O)C1CCN(C(=O)c2ccc(Nc3ccc(-c4ccc5c(c4)CNC5=O)n4ccnc34)cc2)CC1` [Compound 41, N-methyl-1-(4-(5-(1-oxoisoindolin-5-yl)imidazo[1,2-a]pyridin-8-ylamino)benzoyl) piperidine-4-carboxamide] were, in that order, 101 to 1000 nM and above 3000 nM.
Compound `CC(=O)N(C)C1CCN(C(=O)c2ccc(Nc3ccc(-c4ccc5c(c4)CNC5=O)n4ccnc34)cc2)C1` (centres unmarked) [Compound 42, N-methyl-N-(1-(4-(5-(1-oxoisoindolin-5-yl)imidazo[1,2-a]pyridin-8-ylamino)benzoyl)pyrrolidin-3-yl)acetamide] returned an IC50 in assay [1] of 101 to 1000 nM. The compound further returned an EC50 in assay [2] above 3000 nM.
The compound `O=C(NCCN1CCOCC1)c1ccc(Nc2ccc(-c3ccc4c(c3)CNC4=O)n3ccnc23)cc1` [Compound 43, N-(2-morpholinoethyl)-4-(5-(1-oxoisoindolin-5-yl)imidazo[1,2-a]pyridin-8-ylamino)benzamide] showed an IC50 in assay [1] of 101 to 1000 nM. In addition, the EC50 in assay [2] was above 3000 nM.
The like results for `O=C1NCc2cc(-c3ccc(Nc4ccc(C(=O)N5CCC(N6CCCCC6)CC5)cc4)c4nccn34)ccc21` [Compound 46, 5-(8-(4-(1,4′-bipiperidine-1′-carbonyl)phenylamino)imidazo[1,2-a]pyridin-5-yl)isoindolin-1-one] were, in that order, below 100 nM and above 3000 nM.
The like results for `CCN(C)CCN(CC)C(=O)c1ccc(Nc2ccc(-c3ccc4c(c3)CNC4=O)n3ccnc23)cc1` [Compound 47, N-ethyl-N-(2-(ethyl(methyl)amino)ethyl)-4-(5-(1-oxoisoindolin-5-yl)imidazo[1,2-a]pyridin-8-ylamino)benzamide] were, in that order, below 100 nM and above 3000 nM.
Taken in the same sequence, the figures for `CC(C)N1CCN(C(=O)c2ccc(Nc3ccc(-c4ccc5c(c4)CNC5=O)n4ccnc34)cc2)CC1` [Compound 48, 5-(8-(4-(4-isopropylpiperazine-1-carbonyl)phenylamino)imidazo [1,2-a]pyridin-5-yl)isoindolin-1-one] were below 100 nM and above 3000 nM.
On to `CCN1CCC[C@H]1CNC(=O)c1ccc(Nc2ccc(-c3ccc4c(c3)CNC4=O)n3ccnc23)cc1` [Compound 49, (S)-N-((1-ethylpyrrolidin-2-yl)methyl)-4-(5-(1-oxoisoindolin-5-yl)imidazo[1,2-a]pyridin-8-ylamino)benzamide], for which, in assay [1], the IC50 was below 100 nM. Besides, the EC50 in assay [2] was above 3000 nM.
Taken in the same sequence, the figures for `CN(C)CCCNC(=O)c1ccc(Nc2ccc(-c3ccc4c(c3)CNC4=O)n3ccnc23)cc1` [Compound 50, -(3-(dimethylamino)propyl)-4-(5-(1-oxoisoindolin-5-yl)imidazo[1,2-a]pyridin-8-ylamino)benzamide] were 101 to 1000 nM and above 3000 nM.
The like results for `O=C(NCCCN1CCCC1)c1ccc(Nc2ccc(-c3ccc4c(c3)CNC4=O)n3ccnc23)cc1` [Compound 51, 4-(5-(1-oxoisoindolin-5-yl)imidazo[1,2-a]pyridin-8-ylamino)-N-(3-(pyrrolidin-1-yl)propyl)benzamide] were, in that order, 101 to 1000 nM and above 3000 nM.
In assay [1], `CCC(C)N1CCN(C(=O)c2ccc(Nc3ccc(-c4ccc5c(c4)CNC5=O)n4ccnc34)cc2)CC1` (centres unmarked) [Compound 52, 5-(8-(4-(4-sec-butylpiperazine-1-carbonyl)phenylamino)imidazo [1,2-a]pyridin-5-yl)isoindolin-1-one] registered an IC50 of 101 to 1000 nM. Besides, the EC50 in assay [2] was above 3000 nM.
On to `CCN1CCN(C(=O)c2ccc(Nc3ccc(-c4ccc5c(c4)CNC5=O)n4ccnc34)cc2)CC1` [Compound 53, 5-(8-(4-(4-ethylpiperazine-1-carbonyl)phenylamino)imidazo [1,2-a]pyridin-5-yl)isoindolin-1-one], for which the IC50 in assay [1] was below 100 nM. Further, the EC50 in assay [2] is above 3000 nM.
Compound `CN1CCN(c2ccc(Nc3ccc(-c4ccc(C(N)=O)cc4)n4ccnc34)cc2F)CC1` [Compound 63] came in with an IC50 in assay [1] of 101 to 1000 nM. The EC50 in assay [2] was above 3000 nM.
